Data on four compounds can be found in paper PMC9021956, “Screening and Identification of HBV Epitopes Restricted by Multiple Prevalent HLA-A Allotypes” (Frontiers in Immunology, 2022).

Structures are written as SMILES. Like-named read-outs stand apart in the source and are kept apart here. Residues, ends and D or L forms follow the SMILES beside them. Bounds are passed on as bounds.

The target in test [1] is HLA-A3101 (Homo sapiens, UniProt P04439, A270S/D185E/E176V/E277Q/F33T/G231S/G80R/H175R/I121M/I218V/I322F/K168Q/L300P/L318F/M331R/P217A/Q94H/R138Q/T323A/T345S/T97I/V358M). The test can be described thus: Peptide competitive binding assay, transfected HMy2.CIR cells, reference ATFQFK(FITC)VER. The conditions noted are these: for inhibition at 5 µM / inhibition at 15 µM: HLA-A3101 HMy2.CIR cells; for inhibition at 5 µM: competitor peptide 5μM; for inhibition at 15 µM: competitor peptide 15μM; for IC50: read-out: Affinity. In outline:
(§1)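 HMy2.CIR cells stably transfected with the HLA-A allele, acid-stripped (citrate/phosphate, pH3.3), neutralised and plated with β2-m (1 μg/mL); unlabeled peptide competes with the allele's FITC reference peptide. FITC+ cells read by flow cytometry; competitive binding % normalised to no-peptide and reference-only wells; IC50 reported.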

In test [2] the target is T1, HLA-A1101 (Homo sapiens, UniProt P04439, A114D/D185E/E176A/F33Y/L180Q/S129P/T187R).
T1 construct: expressed in transfected cells; host or cells: HMy2.CIR
Briefly: cell-based. The note with it: for inhibition at 5 µM: read-out: 5μM Inhibition (%); for inhibition at 15 µM: read-out: 15μM Inhibition (%). The test is classed as binding. The method in brief:
as §1

Test [3] has as its target T2, HLA-A0201 (Homo sapiens, UniProt P04439, D140Y/D185E/D98H/E176V/E277Q/G131W/G231S/I119V/I121R/I166T/I218V/L300P/L318F/N151K/N90K/P208A/P217A/Q86G/Q94H/R138H/R169H/T345S).
T2 construct: expressed in transfected cells; host or cells: HMy2.CIR
Briefly: cell-based. Format: binding. The conditions noted are these: for inhibition at 5 µM: read-out: 5μM Inhibition (%); for inhibition at 15 µM: read-out: 15μM Inhibition (%). In outline: as §1

Test [4] concerns the target HLA-A2402 (Homo sapiens, UniProt P04439, D101N/D140Y/D185E/E176V/E190D/F33S/G103R/G107R/I119L/I121M/I306V/K335N/L105A/L180Q/L300P/N151K/N90K/Q86E/Q94H/R106L/R138H/R89G/T104I/T345S/V100E/W191G/Y123F). Briefly: cell-based. Format: binding. The method in brief: as §1
Where [5] appears, read: HLA-A1101 HMy2.CIR cells, competitor peptide 5μM, 24 hours, flow cytometry.
Where [6] appears, read: HLA-A1101 HMy2.CIR cells, competitor peptide 15μM, 24 hours, flow cytometry.

Regarding `CC(C)C[C@H](NC(=O)[C@H](CCCCN)NC(=O)[C@H](Cc1c[nH]cn1)NC(=O)[C@H](CCCNC(=N)N)NC(=O)[C@H](CS)NC(=O)CNC(=O)CNC(=O)[C@H](CC(C)C)NC(=O)[C@@H](N)C(C)C)C(=O)O` [Epitope P36] (H-VLGGCRHKL-OH; N-terminus and C-terminus assumed), the inhibition at 5 µM was found to be 4.82% in test [1] (24 hours, flow cytometry); 14% in test [2] (setting [5]); 22.3% in test [3] (HLA-A0201 HMy2.CIR cells, competitor peptide 5μM, 24 hours, flow cytometry). Moreover, the inhibition at 15 µM was 5.7% in test [1] (24 hours, flow cytometry); 20.6% in test [2] (setting [6]); 37.3% in test [3] (HLA-A0201 HMy2.CIR cells, competitor peptide 15μM, 24 hours, flow cytometry). Further, the IC50 in test [1], in test [2] and in test [3] was more than 15 µM in each case.
With `CC[C@H](C)[C@H](NC(=O)[C@H](CO)NC(=O)[C@H](CO)NC(=O)[C@@H](NC(=O)[C@@H]1CCCN1C(=O)[C@@H](N)CO)[C@@H](C)CC)C(=O)N[C@@H](Cc1ccccc1)C(=O)N[C@@H](CO)C(=O)N[C@@H](CCCNC(=N)N)C(=O)O` [Epitope P38] (H-SPISSIFSR-OH; N-terminus and C-terminus assumed), the inhibition at 5 µM in test [1] (24 hours, flow cytometry) worked out at 4.04%; in test [2] (24 h) it was 13.2%; in test [3] (24 h) it was 0%. Also, the inhibition at 15 µM in test [1] (24 hours, flow cytometry) was 4.49%; in test [2] (24 h), 14.6%; in test [3] (24 h), 0%.
`CC(C)C[C@H](NC(=O)[C@H](CO)NC(=O)[C@H](Cc1ccccc1)NC(=O)[C@H](Cc1ccccc1)NC(=O)CNC(=O)[C@H](C)NC(=O)[C@@H](N)CCC(N)=O)C(=O)N[C@H](C(=O)N[C@@H](CCCCN)C(=O)O)[C@@H](C)O` [Epitope P40] (H-QAGFFSLTK-OH; N-terminus and C-terminus assumed): the inhibition at 5 µM in test [1] (24 hours, flow cytometry) is 4.93%; in test [2] (setting [5]), 87.7%. Moreover, the inhibition at 15 µM in test [1] (24 hours, flow cytometry) was 5.48%; in test [2] (setting [6]), 92.8%. In addition, the IC50 in test [1] was more than 15 µM; in test [2], less than 5 µM.
As to `CC(C)C[C@H](NC(=O)[C@@H](NC(=O)[C@H](Cc1ccccc1)NC(=O)[C@@H](NC(=O)[C@@H](N)CCCCN)C(C)C)C(C)C)C(=O)NCC(=O)NCC(=O)N[C@@H](CS)C(=O)N[C@@H](CCCNC(=N)N)C(=O)O` [Epitope P63], the inhibition at 5 µM in test [1] (24 hours, flow cytometry) came to 35.4%; in test [4] (HLA-A2402 HMy2.CIR cells, competitor peptide 5μM, 24 hours, flow cytometry) it was 9.68%. The inhibition at 15 µM came to 55.4% in test [1] (24 hours, flow cytometry) and 4.38% in test [4] (HLA-A2402 HMy2.CIR cells, competitor peptide 15μM, 24 hours, flow cytometry). Also, the Affinity result in test [1] (transfected HMy2.CIR cells expressing HLA-A3101, unlabeled peptide competes with FITC-labeled reference peptide, 24 hours, flow cytometry, class by IC50) was “inter”. For the same compound, the IC50 in test [4] was more than 15 µM.
